Data reported in paper PMC11200585, “Prospects for Prostate Cancer Chemotherapy: Cytotoxic Evaluation and Mechanistic Insights of Quinolinequinones with ADME/PK Profile” (Biomedicines, 2024).
Counter-ions that a name gives are not always drawn.

Key:
[1] = tested on: DU-145 cells; experiment: Cell cycle assay (flow cytometry, PI); type: cell-based, human; conditions: 24 h, highest concentrations
Procedure: Cells were subjected to AQQ1 and DOXO treatments as previously described for apoptosis necrosis analysis. For cell cycle analysis, a cell population of 1 × 10^6 was collected, centrifuged, and the supernatant was removed. The resulting cellular pellet was re-suspended in 70% cold ethanol in PBS. Subsequently, the cells underwent a single PBS wash, followed by incubation in PBS containing […] PI (Sigma-Aldrich, St. Louis, MO, USA) and 2 mg/mL DNase-free RNase-A (Affymetrix, Inc., Santa Barbara, CA, USA) for 30 min at room temperature in a light-protected environment. Analysis was performed using the BD FACS Calibur Flow Cytometry System, and the BD CellQuest Pro Software software (version 5.1, Becton Dickinson, USA) was employed to determine cell cycle phase distributions in comparison to the control group.

[2] = tested on: MDA-MB-231 cells; experiment: MTT assay; type: cell-based; conditions: Homo sapiens, 24 h, mean ± SEM
Procedure: (§1) For the MTT assay, DU-145, MDA-MB-231, HCT-116, and HUVEC cells (American Type Culture Collection) were seeded at a concentration of 1 × 10^4 cells per well in 96-well plates and allowed to incubate overnight, ensuring proper adherence. Subsequently, a series of concentrations for both AQQ1 and AQQ2 (ranging from 1 to 100 µM) were added to the culture medium with a final concentration of 1% DMSO, and cells were subjected to an additional 24 h incubation period. The control group only received 1% DMSO (Biomatik, Cambridge, ON, Canada). To establish a baseline for comparison, DOXO (Saba, İstanbul, Turkey), a known chemotherapeutic agent, was administered at equivalent concentrations. Following the incubation period, MTT (3-(4,5-dimethylthiazol-2-yl)-2,5-diphenyltetrazolium bromide) (Biomatik, Canada) assay was carried out to assess cell viability. Finally, the absorbance was quantified at 590 nm using a BioTek Epoc plate reader (Biotek, Winooski, VT, USA). The derived data were analysed using GraphPad Prism 8 software to calculate the inhibitory concentration 50 (IC50) values of the test compounds.

[3] = tested on: HCT-116 cells; experiment: MTT assay; type: cell-based; conditions: Homo sapiens, 24 h, mean ± SEM
Procedure: as §1

[4] = tested on: DU-145 cells; experiment: MTT assay; type: cell-based; conditions: Homo sapiens, 24 h, mean ± SEM
Procedure: as §1

[5] = tested on: Human Umbilical Vein Endothelial Cells (HUVEC); experiment: MTT assay; type: cell-based; conditions: 24 h, mean ± SEM
Procedure: as §1

With `COc1cccc2c1C(=O)c1c(O)c3c(c(O)c1C2=O)C[C@@](O)(C(=O)CO)C[C@@H]3O[C@H]1C[C@H](N)[C@H](O)[C@H](C)O1` [DOXO, Doxorubicin HCl, reference compound] as the compound, how does the “population of cells in the G0/G1 phase” value [1] read?
The value was “showed a similar effect on DU-145 cells”.

What about the IC50 [2] of the same compound?
Its IC50 is 59.1 ± 9.06 µM.

And the IC50 [3]?
Its IC50 is 24.4 ± 6.9 µM.

What about the IC50 [4] of the same compound?
Its IC50 is under 100 µM.

What about the IC50 [5] of the same compound?
Its IC50 is 57.5 ± 9.82 µM.
